The source of these data is US10004786B2 (Zealand Pharma A/S, priority 2009, dated 2018).

The half-life is how long it takes for the measured level to halve.

SMILES strings stand for the structures. Numbered stars: 1 amine (or outer) side, 2 acyl side, 3 side chain; on linkers, the order of the positions; unused ones are H or OH. Square brackets hold non-standard residues; d marks the D form. Side chains are listed from the residue outwards. Peptide text beside a SMILES is read from it. * marks the point of attachment. γGlu = O=C(O)[C@H](CCC(=O)[*:2])N[*:1]; Palmitoyl = CCCCCCCCCCCCCCCC(=O)*; Aib = CC(C)(N)C(=O)O

Data set [1] is described as follows: Pharmacokinetic screening in mouse plasma after subcutaneous administration. The format is in vivo. Particulars: sc, mice, 100 nmol/kg s.c., * = only two time points used for calculation. On the procedure: Mice were dosed 100 nmol/kg subcutaneously (s.c.). The mice were sacrificed and the blood collected at the following time points; 0.5, 2, 4, 6, 16 and 24 h. Plasma samples were analyzed using protein precipitation, followed by solid phase extraction (SPE) and liquid chromatography mass spectrometry (LC-MS).
Pharmacokinetic profiles were determined for various acylated compounds.

Data set [2] in a line: Oral glucose tolerance test after 21 days s.c. administration in long term high fat fed mice. The format is in vivo. Particulars: 10 nmol/kg, long term high fat-fed C57BL/6J mice, two way ANOVA. On the procedure: (§1) Male mice (Long term high fat fed C57Bl/6J, short term high fat fed C57Bl/6J and db/db) were acclimatized with free access to food and water. They were housed in groups of 5-6 in a light-, temperature-, and humidity-controlled room (12-hour light:12-hour dark cycle, lights On/Off at 2000/0800 hour; 24° C.; 50% relative humidity).
(§2) The animals were injected s.c. with 100 μl vehicle (once a day) for a period of three days to acclimatize the animals to handling and injections. Blood samples were taken from the eye or from the tip of the tail. The animals were randomized before treatment.
(§3) Mice were treated twice daily s.c. with GluGLP-1 agonist or vehicle (injection volume=2.5 ml/kg). Throughout the study, body weights were recorded daily and used to administer the body weight-corrected doses of peptide. Peptide solutions were prepared fresh immediately before dosing.
Oral glucose tolerance tests (OGTT) were performed after subjecting the animals to a short fast. To prevent confounding food intake, the animals were kept fasted during the OGTTs. After peptide dosing an initial blood sample was taken. […] The whole blood glucose (BG) was measured at t=15 min, t=30 min, t=60 min, t=90 min and t=120 min.
The BG concentration was analyzed by the immobilized glucose oxidase method using a drop of blood (<5 μl; Elite Autoanalyser, Bayer, Denmark) following the manufacturer's instructions. […]

The nature of data set [3]: HbA1c in db/db mice after 28 days. Format: in vivo. The note with it: 4 weeks, 12.7 nmol/kg, P=0.03 Students t-test. On the procedure:
as §1, §2
Mice were treated twice daily s.c. with GluGLP-1 agonist or vehicle (injection volume=2.5 ml/kg). Throughout the study, body weights were recorded daily and used to administer the body weight-corrected doses of peptide. Peptide solutions were prepared fresh immediately before dosing. […]
The HbA1c determination is based on Turbidimetric INhibition ImmunoAssay (TINIA) in which HbA1c in the sample reacts with anti-HbA1c to form soluble antigen-antibody complexes. Additions of polyhaptens react with excess anti-HbA1c antibodies to form an insoluble antibody-polyhapten complex, which can be measured turbidimetrically. Liberated hemoglobin in the hemolyzed sample is converted to a derivative having a characteristic absorption spectrum, which is measured bichromatically during the preincubation phases. […]

Data set [4] in a line: Body weight after 21 days s.c. administration in long term high fat fed mice. The format is in vivo. The note with it: 21 days b.i.d. s.c., 10 nmol/kg, long term high fat-fed C57BL/6J mice; p<0.05. On the procedure: as §1, §2, §3
Effect of 21 days s.c. administration of compound 11 on body weight was determined in long term high fat-fed C57BL/6J mice. C57Bl/6J male mice on high fat diet (HFD) were treated (b.i.d.; s.c.) with compound 11 (10 nmol/kg) or vehicle. Body weights were recorded daily and used to administer the body weight-corrected doses of peptide throughout the study. Data are shown as mean±SEM in FIG. 4.

Data set [5] is described as follows: Body weight gain in high fat fed C57BL/6J mice (10 days). The format is in vivo. The note with it: 5 nmol/kg b.i.d. s.c., short term high fat-fed C57BL/6J mice. Here is the method: C57Bl/6J male mice, 6 weeks old, were acclimatized in their new environment for 4 weeks with free access to high fat diet (HFD) (D12492, Research Diet Inc., New Brunswick, USA) and water. The animals were injected s.c. with 100 μl vehicle for a period of three days to acclimatize the animals to handling and injections, prior to initiation of peptide treatment. […] Throughout the study, body weights were recorded daily and used to administer the body weight-corrected doses of peptide. All animals were sacrificed on the same day by cervical dislocation.
C57Bl/6J male mice on high fat diet (HFD) were treated (b.i.d.; s.c.) (0.5 and 5 nmol/kg) or vehicle. Body weights were recorded daily and used to administer the body weight-corrected doses of peptide throughout the study. Data are shown as mean±SEM in FIG. 7.

The nature of data set [6]: Plasma lipids after 3 weeks s.c. administration in 30 weeks high fat diet fed mice. Particulars: 10 nmol/kg twice daily s.c. The format is in vivo, C57BL/6J mice. Here is the method:
The assay is an enzymatic colorimetric method. In the presence of magnesium ions, dextran sulfate selectively forms water-soluble complexes with LDL, VLDLA and chylomicrons, which are resistant to PEG-modified enzymes. The HDL cholesterol is determined enzymatically by cholesterol esterase and cholesterol oxidase coupled with PEG to the amino groups. Cholesterol esters are broken down quantitatively to free cholesterol and fatty acids. HDL cholesterol is enzymatically oxidized to choles-4-en-3-one and H2O2, and the formed H2O2 is measured colorimetrically (Cobas®; Application note HDLC3).
The direct determination of LDL takes advantage of the selective micellary solubilization of LDL by a nonionic detergent and the interaction of a sugar compound and lipoproteins (VLDL and chylomicrons). The combination of a sugar compound with detergent enables the selective determination of LDL in plasma. The test principle is the same as that of cholesterol and HDL, but due to the sugar and detergent only LDL-cholesterol esters are broken down to free cholesterol and fatty acids. Free cholesterol is then oxidized and the formed H2O2 is measured colorimetrically (Application note LDL_C, Cobas®).
The effect was measured on LDL, HDL and triglycerids (CHO: Total Cholesterol; HDL: High Density Cholesterol; LDL: Low Density Cholesterol; TRIG: Triglycerides; HDL/LDL: Ratio between HDL and LDL).

Data set [7] can be described thus: Liver weight/body weight of C57BL/6J mice treated for 2 weeks. The format is in vivo. On the procedure: Mice were treated twice daily s.c. with Cpd. 1 and Cpd. 11 (at two doses: 0.5 and 5 nmol/kg) or vehicle for 2 weeks. Throughout the study, body weights were recorded daily and used to administer the body weight-corrected doses of peptide. On the day of sacrifice, the liver was exposed, and weighed.

`CCCCCCCCCCCCCCCC(=O)N[C@@H](CCC(=O)NCCCC[C@H](NC(=O)[C@H](CO)NC(=O)[C@H](CC(=O)O)NC(=O)[C@H](CC(C)C)NC(=O)[C@H](Cc1ccc(O)cc1)NC(=O)[C@H](CCCCN)NC(=O)[C@H](CO)NC(=O)[C@H](Cc1ccc(O)cc1)NC(=O)[C@H](CC(=O)O)NC(=O)[C@H](CO)NC(=O)[C@@H](NC(=O)[C@H](Cc1ccccc1)NC(=O)[C@@H](NC(=O)CNC(=O)[C@H](CCC(N)=O)NC(=O)C(C)(C)NC(=O)[C@@H](N)Cc1c[nH]cn1)[C@@H](C)O)[C@@H](C)O)C(=O)N[C@@H](C)C(=O)N[C@@H](C)C(=O)N[C@@H](Cc1c[nH]cn1)C(=O)N[C@@H](CC(=O)O)C(=O)N[C@@H](Cc1ccccc1)C(=O)N[C@H](C(=O)N[C@@H](CCC(=O)O)C(=O)N[C@@H](Cc1c[nH]c2ccccc12)C(=O)N[C@@H](CC(C)C)C(=O)N[C@@H](CC(C)C)C(=O)N[C@@H](CCCNC(=N)N)C(=O)N[C@@H](C)C(N)=O)C(C)C)C(=O)O` [Compound 11] (H-H[Aib]QGTFTSDYSKYLDSK([γGlu-Palmitoyl])AAHDFVEWLLRA-NH2): in data set [1], the half-life was 4.9 h. For the same compound, the oral glucose tolerance result in data set [2] is recorded as “significantly improved glucose tolerance”. For the same compound, the “ΔHbA1c (%) compared to vehicle” value in data set [3] is on record as “decreased ΔHbA1c (%) significantly”. Also, in data set [4], the body weight entry is on record as “significantly decreased body weight”. The “body weight gain, high dose” value in data set [5] is “significantly decreased body weight gain at the high dose”. Further, in data set [6] (P<0.001), the HDL entry was “significantly decreased”, the LDL result is listed as “significantly decreased” and the “cholesterol (total)” value is reported as “significantly decreased”. The triglycerides entry in data set [6] (P<0.05) is reported as “significantly decreased”. Besides, the “ratio HDL/LDL” value in data set [6] (p<0.001) is recorded as “increased significantly”. The “liver weight/body weight ratio, low dose” value in data set [7] (0.5 nmol/kg twice daily s.c.) is “did not affect”. Further, the “liver weight/body weight ratio, high dose” value in data set [7] (5 nmol/kg twice daily s.c.) was “did not affect”. Besides, the “change in liver size” value in data set [7] (repeated treatment, C57 healthy control mice, compared with compound 1) is “do not give rise to change in liver size”.
